Where “and” joins values, the source holds several entries; their conditions need not be identical. Equal values may be shown once. Read-outs that look alike come from different tables or passages of the source.
Text: Concentrations versus time data are plotted in FIG. 1 through FIG. 6.
[1] = SC 10 mg/kg, individual rat (777)
[2] = SC 10 mg/kg, individual rats 776, 777, 778, 10 mg/kg
[3] = SC 50 mg/kg, individual rats 779, 780, 781, 50 mg/kg
[4] = SC 100 mg/kg, individual rats 782, 783, 784, 100 mg/kg
[5] = SC 100 mg/kg, individual rats 782, 783, 100 mg/kg

Question: With `O=[13C](O)[13CH2][13CH2][13C](=O)O` [^13C4-succinate] as the molecule, how does the “Time post dosing at which maximum plasma concentrations were observed” value (“Time post dosing” for short) (SC 10 mg/kg) read?
Answer: The value was 15 min.

Question: What about the Plasma concentration (SC 10 mg/kg, 0.50 hr, individual rats 776, 777, 778, 10 mg/kg) of the same molecule?
Answer: The Plasma concentration was 1280 ng/mL (2×) and 854 ng/mL.

Question: And the Plasma concentration (SC 10 mg/kg, 0.50 hr, mean)?
Answer: Its Plasma concentration is 1138 ng/mL.

Question: And the Plasma concentration (SC 10 mg/kg, 1.0 hr, individual rats 776, 777, 778, 10 mg/kg)?
Answer: The Plasma concentration was 430 ng/mL and 220 ng/mL and 415 ng/mL.

Question: And the Plasma concentration (SC 10 mg/kg, 1.0 hr, mean)?
Answer: Its Plasma concentration is 355 ng/mL.

Question: What about the Plasma concentration (SC 10 mg/kg, 2.0 hr, individual rats 776, 777, 778, 10 mg/kg) of the same molecule?
Answer: Its Plasma concentration is 28.5 ng/mL and 10.6 ng/mL and 23.2 ng/mL.

Question: What about the Plasma concentration (SC 10 mg/kg, 2.0 hr, mean) of the same molecule?
Answer: Its Plasma concentration is 20.8 ng/mL.

Question: What about the Plasma concentration (SC 10 mg/kg, 4.0 hr, mean) of the same molecule?
Answer: The Plasma concentration was 7.59 ng/mL.

Question: And the “AUC∞” value [1]?
Answer: The value was 1030 ng·h/mL.

Question: And the “Dose-normalized AUC∞” value [1]?
Answer: Its value is 103 kg·ng·h/mL/mg.

Question: And the t1/2 [1]?
Answer: The t1/2 was 27.2 min.

Question: What about the tmax (SC 10 mg/kg, individual rats 776, 777, 778) of the same molecule?
Answer: Its tmax is 15 min.

Question: And the Bioavailability (SC 10 mg/kg, individual rats 776, 777, 778, vs average IV dose-normalized AUClast, 10 mg/kg)?
Answer: Its Bioavailability is 98.9% and 47.7% and 76.7%.

Question: What about the AUClast [2] of the same molecule?
Answer: The AUClast was 2131 ng·h/mL and 1027 ng·h/mL and 1653 ng·h/mL.

Question: What about the Cmax [2] of the same molecule?
Answer: Its Cmax is 5090 ng/mL and 2090 ng/mL and 3260 ng/mL.

Question: What about the MRTlast [2] of the same molecule?
Answer: Its MRTlast is 30.2 min and 29.3 min and 31.6 min.

Question: What about the AUClast (SC 10 mg/kg, mean) of the same molecule?
Answer: The AUClast was 1604 ng·h/mL.

Question: What about the Cmax (SC 10 mg/kg, mean) of the same molecule?
Answer: Its Cmax is 3480 ± 1512 ng/mL.

Question: And the MRTlast (SC 10 mg/kg, mean)?
Answer: Its MRTlast is 30.4 min.

Question: What about the tmax (SC 10 mg/kg, mean) of the same molecule?
Answer: The tmax was 15 min.

Question: What about the Bioavailability (SC 10 mg/kg, mean, vs average IV dose-normalized AUClast) of the same molecule?
Answer: The Bioavailability was 74.4±25.7%.

Question: What about the “Dose-normalized AUClast” value (SC 10 mg/kg, mean, 10 mg/kg) of the same molecule?
Answer: The value was 160 ± 55.4 kg·ng·h/mL/mg.

Question: And the “Dose-normalized AUClast” value (SC 10 mg/kg, mean, listed as 13C4-Succinate, 10 mg/kg)?
Answer: Its value is 160 kg·ng·h/mL/mg.

Question: What about the “Time post dosing” value (SC 50 mg/kg) of the same molecule?
Answer: The value was 15 min.

Question: What about the Plasma concentration (SC 50 mg/kg, 0.50 hr, individual rats 779, 780, 781, 50 mg/kg) of the same molecule?
Answer: Its Plasma concentration is 9750 ng/mL and 15500 ng/mL and 11100 ng/mL.

Question: What about the Plasma concentration (SC 50 mg/kg, 0.50 hr, mean) of the same molecule?
Answer: The Plasma concentration was 12117 ng/mL.

Question: And the Plasma concentration (SC 50 mg/kg, 1.0 hr, individual rats 779, 780, 781, 50 mg/kg)?
Answer: Its Plasma concentration is 1020 ng/mL and 2420 ng/mL and 2020 ng/mL.

Question: And the Plasma concentration (SC 50 mg/kg, 1.0 hr, mean)?
Answer: Its Plasma concentration is 1820 ng/mL.

Question: What about the Plasma concentration (SC 50 mg/kg, 2.0 hr, individual rats 779, 780, 781, 50 mg/kg) of the same molecule?
Answer: The Plasma concentration was 102 ng/mL and 163 ng/mL and 122 ng/mL.

Question: And the Plasma concentration (SC 50 mg/kg, 2.0 hr, mean)?
Answer: The Plasma concentration was 129 ng/mL.

Question: What about the Plasma concentration (SC 50 mg/kg, 4.0 hr, individual rats 779, 780, 781, 50 mg/kg) of the same molecule?
Answer: The Plasma concentration was 15.1 ng/mL and 10.3 ng/mL and 12.3 ng/mL.

Question: What about the Plasma concentration (SC 50 mg/kg, 4.0 hr, mean) of the same molecule?
Answer: The Plasma concentration was 12.6 ng/mL.

Question: What about the Plasma concentration (SC 50 mg/kg, 8.0 hr, mean) of the same molecule?
Answer: Its Plasma concentration is 18.8 ng/mL.

Question: And the tmax (SC 50 mg/kg, individual rats 779, 780, 781)?
Answer: Its tmax is 15 min.

Question: And the Bioavailability (SC 50 mg/kg, individual rats 779, 780, 781, vs average IV dose-normalized AUClast, 50 mg/kg)?
Answer: Its Bioavailability is 78.0% and 116% and 98.7%.

Question: What about the AUClast [3] of the same molecule?
Answer: Its AUClast is 8405 ng·h/mL and 12496 ng·h/mL and 10632 ng·h/mL.

Question: And the Cmax [3]?
Answer: The Cmax was 14800 ng/mL and 18300 ng/mL and 18900 ng/mL.

Question: What about the “Dose-normalized AUClast” value [3] of the same molecule?
Answer: Its value is 168 kg·ng·h/mL/mg and 250 kg·ng·h/mL/mg and 213 kg·ng·h/mL/mg.

Question: And the MRTlast [3]?
Answer: Its MRTlast is 33.5 min and 31.8 min and 30.3 min.

Question: And the AUClast (SC 50 mg/kg, mean)?
Answer: Its AUClast is 10511 ng·h/mL.

Question: What about the Cmax (SC 50 mg/kg, mean) of the same molecule?
Answer: Its Cmax is 17333 ± 2214 ng/mL.

Question: What about the MRTlast (SC 50 mg/kg, mean) of the same molecule?
Answer: Its MRTlast is 31.9 min.

Question: What about the tmax (SC 50 mg/kg, mean) of the same molecule?
Answer: The tmax was 15 min.

Question: What about the Bioavailability (SC 50 mg/kg, mean, vs average IV dose-normalized AUClast) of the same molecule?
Answer: The Bioavailability was 97.6±19.0%.

Question: And the “Dose-normalized AUClast” value (SC 50 mg/kg, mean, 50 mg/kg)?
Answer: The value was 210 ± 41.0 kg·ng·h/mL/mg.

Question: And the “Dose-normalized AUClast” value (SC 50 mg/kg, mean, listed as 13C4-Succinate, 50 mg/kg)?
Answer: Its value is 210 kg·ng·h/mL/mg.

Question: And the “Time post dosing” value (SC 100 mg/kg)?
Answer: The value was 15 min.

Question: What about the Plasma concentration (SC 100 mg/kg, 0.50 hr, individual rats 782, 783, 784, 100 mg/kg) of the same molecule?
Answer: The Plasma concentration was 24500 ng/mL and 13900 ng/mL and 25200 ng/mL.

Question: And the Plasma concentration (SC 100 mg/kg, 0.50 hr, mean)?
Answer: The Plasma concentration was 21200 ng/mL.

Question: What about the Plasma concentration (SC 100 mg/kg, 1.0 hr, individual rats 782, 783, 784, 100 mg/kg) of the same molecule?
Answer: Its Plasma concentration is 6840 ng/mL and 4980 ng/mL and 7750 ng/mL.

Question: What about the Plasma concentration (SC 100 mg/kg, 1.0 hr, mean) of the same molecule?
Answer: Its Plasma concentration is 6523 ng/mL.

Question: What about the Plasma concentration (SC 100 mg/kg, 2.0 hr, individual rats 782, 783, 784, 100 mg/kg) of the same molecule?
Answer: The Plasma concentration was 364 ng/mL and 435 ng/mL and 779 ng/mL.

Question: And the Plasma concentration (SC 100 mg/kg, 2.0 hr, mean)?
Answer: Its Plasma concentration is 526 ng/mL.

Question: What about the Plasma concentration (SC 100 mg/kg, 4.0 hr, individual rats 782, 783, 784, 100 mg/kg) of the same molecule?
Answer: Its Plasma concentration is 103 ng/mL and 40.8 ng/mL and 52.9 ng/mL.

Question: What about the Plasma concentration (SC 100 mg/kg, 4.0 hr, mean) of the same molecule?
Answer: Its Plasma concentration is 65.6 ng/mL.

Question: And the Plasma concentration (SC 100 mg/kg, 8.0 hr, mean)?
Answer: Its Plasma concentration is 25.9 ng/mL.

Question: And the tmax (SC 100 mg/kg, individual rats 782, 783, 784)?
Answer: The tmax was 15 min.

Question: What about the Bioavailability (SC 100 mg/kg, individual rats 782, 783, 784, vs average IV dose-normalized AUClast, 100 mg/kg) of the same molecule?
Answer: Its Bioavailability is 115% (2×) and 72.0%.

Question: And the AUClast [4]?
Answer: The AUClast was 24683 ng·h/mL and 15518 ng·h/mL and 24689 ng·h/mL.

Question: What about the Cmax [4] of the same molecule?
Answer: The Cmax was 37900 ng/mL and 23100 ng/mL and 32000 ng/mL.

Question: And the “Dose-normalized AUClast” value [4]?
Answer: The value was 247 hr · kg · ng/mL/mg (2×) and 155 hr · kg · ng/mL/mg.

Question: And the MRTlast [4]?
Answer: The MRTlast was 35.8 min and 37.7 min and 39.6 min.

Question: And the “AUC∞” value [5]?
Answer: The value was 24719 ng·h/mL and 15530 ng·h/mL.

Question: And the “Dose-normalized AUC∞” value [5]?
Answer: Its value is 247 kg·ng·h/mL/mg and 155 kg·ng·h/mL/mg.

Question: And the t1/2 [5]?
Answer: Its t1/2 is 84 min and 44.8 min.

Question: And the AUClast (SC 100 mg/kg, mean)?
Answer: Its AUClast is 21630 ng·h/mL.

Question: And the “AUC∞” value (SC 100 mg/kg, mean)?
Answer: Its value is 20124 ng·h/mL.

Question: What about the Cmax (SC 100 mg/kg, mean) of the same molecule?
Answer: The Cmax was 31000 ± 7451 ng/mL.

Question: What about the “Dose-normalized AUC∞” value (SC 100 mg/kg, mean) of the same molecule?
Answer: Its value is 201 kg·ng·h/mL/mg.

Question: What about the MRTlast (SC 100 mg/kg, mean) of the same molecule?
Answer: The MRTlast was 37.7 min.

Question: And the t1/2 (SC 100 mg/kg, mean)?
Answer: Its t1/2 is 64.2 min.

Question: What about the tmax (SC 100 mg/kg, mean) of the same molecule?
Answer: The tmax was 15 min.

Question: What about the Bioavailability (SC 100 mg/kg, mean, vs average IV dose-normalized AUClast) of the same molecule?
Answer: The Bioavailability was 100±24.6%.

Question: And the “Dose-normalized AUClast” value (SC 100 mg/kg, mean, 100 mg/kg)?
Answer: Its value is 216 ± 52.9 kg·ng·h/mL/mg.

Question: What about the “Dose-normalized AUClast” value (SC 100 mg/kg, mean, listed as 13C4-Succinate, 100 mg/kg) of the same molecule?
Answer: Its value is 216 kg·ng·h/mL/mg.

Question: And the “Change of exposure with increasing dose” value (SC 10, 50 and 100 mg/kg)?
Answer: Its value is “nonlinear increase in exposure with increasing dose”.

Question: What about the Adverse reactions (subcutaneous dosing, 10, 50 and 100 mg/kg) of the same molecule?
Answer: The Adverse reactions was “No adverse reactions were observed”.

From patent US20210346329A1, “TCA CYCLE INTERMEDIATES AND METHODS OF USE THEREOF” (IMBRIA PHARMACEUTICALS, INC., priority 2018, published 2021)
